Results from patent US20150258105A1, “METHODS FOR ACUTE AND LONG-TERM TREATMENT OF ALCOHOL DEPENDENCE” (DemeRx, Inc., priority 2014, published 2015).
Entries after “also recorded” stand apart in the source; their conditions may differ.

How the values were obtained:
[1] = Pharmacokinetics of noribogaine in healthy volunteers, ascending single oral dose (plasma, LCMSMS); conditions: for mean AUC/24 hr / mean AUC/24: fasting conditions
[2] = system: patients dependent on alcohol; test: Effect of noribogaine on withdrawal from alcohol in humans; assay type: in vivo, human; conditions: single oral dose of 2 mg/kg, at least 2 hours after last alcohol use; self-evaluation and clinical observation
Description: Six patients are orally administered a single dose of 2 mg/kg noribogaine, and three patients receive placebo in a randomized, placebo-controlled, double-blind trial. All patients are dependent on alcohol. Treatment is administered at least 2 hours after last alcohol use.

[3] = system: opioid-dependent participants; test: QT interval prolongation (ΔQTc1) in opioid-dependent participants; assay type: in vivo, human; conditions: 60, 120, 180 mg, first 24 hours post administration
Description: Patients' QT intervals were evaluated at regular time points throughout the study.

[4] = system: healthy, drug-free male volunteers; test: Pupillometry (pupillary miosis) in healthy volunteers; assay type: in vivo, human
Description: (§1) Pulse oximetry and capnography data were collected continuously using a GE Carescape B650 monitoring system from 2 hours prior to dosing and until six hours after dosing, and thereafter at 12, 24, 48 and 72 hours post-dosing. […] Pupillary miosis was assessed by pupillometry.
Summary statistics (means, standard deviations, and coefficients of variation) were determined for each dose group for safety laboratory test data, ECG and pharmacokinetic parameters, and pharmacodynamic variables. Categorical variables were analysed using counts and percentages. Dose-proportionality of AUC and Cmax was assessed using linear regression. The effect of dose on pharmacodynamic parameter values over time was assessed using two-factor analysis of variance (ANOVA). Pairwise comparisons (with Tukey-Kramer adjustment) between each dose group to the placebo were conducted at each time point using the least squares estimates obtained from the ANOVA, using SAS Proc Mixed (SAS ver 6.0).

[5] = system: opioid-dependent participants; test: Opiate withdrawal scales (COWS, SOWS, OOWS) in opioid-dependent participants; assay type: in vivo, human; conditions: first six hours following dosing
Description: Patients were evaluated based on the Clinical Opiate Withdrawal Scale (COWS), Subjective Opiate Withdrawal Scale (SOWS), and Objective Opiate Withdrawal Scale (OOWS) scoring systems over the period of time between administration of noribogaine (or placebo) until resumption of OST. These scales are outlined in Guidelines for the Psychosocially Assisted Pharmacological Treatment of Opioid Dependence, World Health Organization, Geneva (2009), Annex 10, which is incorporated herein by reference in its entirety. The scales measure the intensity of withdrawal symptoms, based on clinical, subjective, and objective indicia.

[6] = system: healthy, drug-free male volunteers; test: Cold pressor test (analgesic effect) in healthy volunteers; assay type: in vivo, human
Description: Analgesic effect was assessed based on duration of hand immersion in ice water and on visual analog scale (VAS) pain scores upon hand removal from the water bath.
(§2) Safety and tolerability of noribogaine were tested in the group of volunteers from Example 1. […] Safety evaluations included clinical monitoring, recording of adverse events (AEs), safety laboratory tests, vital signs, ECG telemetry from −2 h to 6 h after dosing, and 12-lead electrocardiograms (ECGs) up to 216 hours post-dosing.

[7] = system: healthy, drug-free male volunteers; test: Safety and tolerability of noribogaine in healthy humans (adverse events, vital signs, ECG); assay type: in vivo, human
Description: as §1, §2

[8] = system: opioid-dependent participants; test: Treatment emergent adverse events in opioid-dependent participants, single dose
[9] = Pharmacokinetics in opioid-dependent patients, Phase IB study (serum noribogaine); conditions: 60, 120, 180 mg cohorts
[10] = system: opioid-dependent participants; test: Time to resumption of opioid substitution treatment (OST) in opioid-dependent participants; assay type: in vivo, human; conditions: single 180 mg dose
[11] = after adjusting for baseline differences, p>0.9

CC[C@H]1CC2C[C@H]3c4[nH]c5ccc(O)cc5c4CCN(C2)C13 [noribogaine]
CL/F ([1]; 3 mg single oral noribogaine dose, fasted healthy volunteers, plasma, mean (SD), n = 6): 41.4 (7.0) L/h
CL/F ([1]; 10 mg single oral noribogaine dose, fasted healthy volunteers, plasma, mean (SD), n = 6): 42.3 (12.0) L/h
CL/F ([1]; 30 mg single oral noribogaine dose, fasted healthy volunteers, plasma, mean (SD), n = 6): 46.9 (16.4) L/h
Tmax ([1]; 30 mg single oral noribogaine dose, fasted healthy volunteers, plasma, mean (SD), n = 6, listed as noribogaine free base): 1.75 h
CL/F ([1]; 60 mg single oral noribogaine dose, fasted healthy volunteers, plasma, mean (SD), n = 6): 34.0 (11.4) L/h
dose dependence of Cmax and AUC ([1]; 3-60 mg single oral doses, healthy volunteers): increased linearly with dose
Volume of distribution ([1]; across dose groups (3-60 mg), healthy volunteers): 1417 to 3086 L
time of peak concentrations after oral noribogaine dosing ([1]; across dose groups, healthy volunteers, plasma): 2 to 3 h
absorption after oral dosing ([1]; healthy volunteers): rapidly absorbed
mean AUC/24 hr ([1]; single dose of 3 mg noribogaine free base, healthy volunteers): 3.1 ng/mL
mean AUC/24 hr ([1]; single dose of 10 mg noribogaine free base, healthy volunteers): 10.6 ng/mL
mean AUC/24 ([1]; single dose of 30 mg noribogaine free base, healthy volunteers): 29.2 ng/mL
mean AUC/24 ([1]; single dose of 60 mg noribogaine free base, healthy volunteers): 61 ng/mL
symptoms of alcohol withdrawal compared to placebo [2]: fewer and/or less severe symptoms of alcohol withdrawal
QT interval prolongation (ΔQTc1) [3]: dose-dependent increase in QT interval prolongation
pupillary constriction ([4]; 3-60 mg single oral doses, dark-adapted pupil diameter up to 216 hours): no evidence of pupillary constriction
pupil diameter, each dose group versus placebo (ANOVA) [4, 11]: no statistically significant differences
withdrawal symptoms (COWS, OOWS, SOWS scores) ([5]; 120 mg, prior to resumption of OST): fewer withdrawal symptoms than the other patients
withdrawal symptoms versus placebo (COWS, OOWS, SOWS scores) ([5]; 60, 120, 180 mg): placebo generally experienced more withdrawal symptoms than patients who were administered noribogaine
analgesic effect in the cold pressor test ([6]; 3-60 mg single oral doses, 1° C. water): no analgesic effect
VAS pain scores, each dose group versus placebo (ANOVA) ([6]; after adjusting for baseline differences, p=0.17): no statistically significant differences
duration of hand immersion, each dose group versus placebo (ANOVA) [6, 11]: no statistically significant differences
number of adverse events reported ([7]; 3 mg dose group, by two subjects): five
number of adverse events reported ([7]; 10 mg dose group, by a single subject): one
number of adverse events reported ([7]; 30 mg dose group, by a single subject): one
oximetry, capnography, respiratory rate ([7]; 3-60 mg, healthy volunteers): no changes in oximetry or capnography, or changes in respiratory rate
vital signs and safety laboratory tests ([7]; 3-60 mg, healthy volunteers): no changes in vital signs or safety laboratory tests of note
QTcF values >500 msec ([7]; 3-60 mg, healthy volunteers, ECGs up to 216 hours post-dosing): no QTcF values >500 msec at any time
Adverse events, Mild ([7]; Dose 3 mg, healthy volunteers): Dizziness; also recorded: Epistaxis; also recorded: Headache; also recorded: Back pain
Adverse events, Moderate ([7]; Dose 3 mg, healthy volunteers): Headache
Adverse events, Mild ([7]; Dose 10 mg, healthy volunteers): Headache
Adverse events, Mild ([7]; Dose 30 mg, healthy volunteers): Headache
intensity of adverse events ([7]; all dose groups, all resolved prior to study completion): mild-moderate intensity
single increase in QTcF ([7]; one subject dosed with 10 mg, at 24 hours post-dosing): > 60 ms
AE: Catheter Site Infection ([8]; 60 mg single dose, N = 6): 0
AE: Catheter Site Pain ([8]; 60 mg single dose, N = 6): 0
AE: Catheter Site Related Reaction ([8]; 60 mg single dose, N = 6): 0
AE: Cellulitis ([8]; 60 mg single dose, N = 6): 0
AE: Diarrhoea ([8]; 60 mg single dose, N = 6): 0
AE: Dry Mouth ([8]; 60 mg single dose, N = 6): 0
AE: Ear and Labyrinth Disorders ([8]; 60 mg single dose, N = 6): 0
AE: Epistaxis ([8]; 60 mg single dose, N = 6): 0
AE: Euphoric Mood ([8]; 60 mg single dose, N = 6): 0
AE: General Disorders and Administration Site Conditions ([8]; 60 mg single dose, N = 6): 0
AE: Hyperaesthesia ([8]; 60 mg single dose, N = 6): 0
AE: Infections and Infestations ([8]; 60 mg single dose, N = 6): 0
AE: Limb Discomfort ([8]; 60 mg single dose, N = 6): 0
AE: Malaise ([8]; 60 mg single dose, N = 6): 0
AE: Nausea ([8]; 60 mg single dose, N = 6): 0
AE: Oropharyngeal Pain ([8]; 60 mg single dose, N = 6): 0
AE: Pseudoparalysis ([8]; 60 mg single dose, N = 6): 0
AE: Respiratory, Thoracic and Mediastinal Disorders ([8]; 60 mg single dose, N = 6): 0
AE: Rhinorrhoea ([8]; 60 mg single dose, N = 6): 0
AE: Skin Discomfort ([8]; 60 mg single dose, N = 6): 0
AE: Skin Irritation ([8]; 60 mg single dose, N = 6): 0
AE: Skin and Subcutaneous Tissue Disorders ([8]; 60 mg single dose, N = 6): 0
AE: Somnoience ([8]; 60 mg single dose, N = 6): 0
AE: Tinnitus ([8]; 60 mg single dose, N = 6): 0
AE: Tremor ([8]; 60 mg single dose, N = 6): 0
AE: Urinary Tract Infection ([8]; 60 mg single dose, N = 6): 0
AE: Vomiting ([8]; 60 mg single dose, N = 6): 0
frequency of headaches ([8]; 60 mg treatment group): frequent
frequency of headaches ([8]; 120 mg dose group): attenuated
AE: Back Pain ([8]; 120 mg single dose, N = 6): 0
AE: Catheter Site Infection ([8]; 120 mg single dose, N = 6): 0
AE: Catheter Site Related Reaction ([8]; 120 mg single dose, N = 6): 0
AE: Depressed Mood ([8]; 120 mg single dose, N = 6): 0
AE: Dry Eye ([8]; 120 mg single dose, N = 6): 0
AE: Dyspepsia ([8]; 120 mg single dose, N = 6): 0
AE: Euphoric Mood ([8]; 120 mg single dose, N = 6): 0
AE: Limb Discomfort ([8]; 120 mg single dose, N = 6): 0
AE: Malaise ([8]; 120 mg single dose, N = 6): 0
AE: Musculoskeletal and Connective Tissue Disorders ([8]; 120 mg single dose, N = 6): 0
AE: Psychiatric Disorders ([8]; 120 mg single dose, N = 6): 0
AE: Somnoience ([8]; 120 mg single dose, N = 6): 0
AE: Urinary Tract Infection ([8]; 120 mg single dose, N = 6): 0
frequency of headaches ([8]; 180 mg dose group): attenuated
AE: Catheter Site Infection ([8]; 180 mg single dose, N = 6): 0
AE: Catheter Site Pain ([8]; 180 mg single dose, N = 6): 0
AE: Depressed Mood ([8]; 180 mg single dose, N = 6): 0
AE: Diarrhoea ([8]; 180 mg single dose, N = 6): 0
AE: Dry Eye ([8]; 180 mg single dose, N = 6): 0
AE: Dyspepsia ([8]; 180 mg single dose, N = 6): 0
AE: Ear and Labyrinth Disorders ([8]; 180 mg single dose, N = 6): 0
AE: Epistaxis ([8]; 180 mg single dose, N = 6): 0
AE: Euphoric Mood ([8]; 180 mg single dose, N = 6): 0
AE: Hyperaesthesia ([8]; 180 mg single dose, N = 6): 0
AE: Malaise ([8]; 180 mg single dose, N = 6): 0
AE: Oropharyngeal Pain ([8]; 180 mg single dose, N = 6): 0
AE: Pseudoparalysis ([8]; 180 mg single dose, N = 6): 0
AE: Psychiatric Disorders ([8]; 180 mg single dose, N = 6): 0
AE: Respiratory, Thoracic and Mediastinal Disorders ([8]; 180 mg single dose, N = 6): 0
AE: Rhinorrhoea ([8]; 180 mg single dose, N = 6): 0
AE: Skin Discomfort ([8]; 180 mg single dose, N = 6): 0
AE: Skin Irritation ([8]; 180 mg single dose, N = 6): 0
AE: Skin and Subcutaneous Tissue Disorders ([8]; 180 mg single dose, N = 6): 0
AE: Somnoience ([8]; 180 mg single dose, N = 6): 0
AE: Tinnitus ([8]; 180 mg single dose, N = 6): 0
AE: Tremor ([8]; 180 mg single dose, N = 6): 0
hallucinatory effects ([8]; 60, 120 or 180 mg single dose, opioid-dependent participants): no hallucinatory effects
dose dependence of maximum serum concentration (Cmax) [9]: increased in a dose-dependent manner
Time to resumption of OST compared with untreated patients and 60 mg [10]: still longer than untreated patients (7 hours, not shown) or those administered 60 mg noribogaine
